Measurements from patent EP4714947A1, “CRYSTAL FORM OF PYRIMIDO AZACYCLO COMPOUND, AND PREPARATION METHOD THEREFOR AND USE THEREOF” (TYK Medicines, Inc., priority 2023, dated 2024).
Values after ≈ are worked out from the molar mass of the structure shown. Read-outs that look alike come from different tables or passages of the source.

Experiments:
[1] = tested on: tumor patients with RET fusion and mutation; conditions: cited from earlier work
in vivo [2] = conditions: rat, po, 10 mg/kg
Procedure: (§1) Blood samples were collected at different time points to determine the drug concentration in the rat plasma after administration of the test substance and relevant pharmacokinetic parameters were calculated.
(§2) The specific preparation method was as follows: 10mg of the test sample was taken, 0.5% MC and 1% Tween 80 was added, the resulting mixture was vortex mixed to obtain a solution with a concentration of 1mg/mL. The solution was freshly prepared before use, mixed well through vortex, and set aside for later use.
(§3) Healthy male SD rats or dogs were used for this study. All animals were fasted before administration and resumed feeding 4 hours after administration.
(§4) About 0.1 mL of blood was collected via the jugular vein from each animal, using EDTA or heparin sodium as anticoagulants. After collected, the blood sample was placed on ice and centrifuged to separate the plasma (centrifugation conditions: 10000 rpm, 5 minutes, and 4 °C).
(§5) The plasma samples were analyzed by LC-MS/MS by the analysis department of the experimental institution.

[3] = Pharmacokinetics in rats after a single dose by gavage; conditions: for in vivo exposure levels: rat pharmacokinetic data, compared with free base crystal form I; for AUC0-last / AUCINF / Cmax / T1/2 / Tmax: SD rats, single gavage dose 10mpk, 1mg/ml in 0.5% MC+1% tween 80 (Uniform suspension), 10 mg/kg
Procedure: as §1, §2, §3, §4, §5

[4] = Solid-state stability, 7 days at 60 °C/closed and 40 °C/75% RH (HPLC purity, XRPD); assay type: physicochemical; conditions: for Purity (Area%) 40 °C/ 75%RH / Purity (Area%) 60 °C/ Closed / XRPD 40 °C/ 75%RH / XRPD 60 °C/ Closed: 7 days; for Purity (Area%) 40 °C/ 75%RH / Purity (Area%) 60 °C/ Closed / Initial purity (Area%): HPLC; for Initial purity (Area%): before storage; for XRPD 40 °C/ 75%RH: crystal form after 40 °C/75% RH; for XRPD 60 °C/ Closed: crystal form after 60 °C/closed
Procedure: HPLC analysis was performed using Agilent HPLC 1260 series instruments. Table 37 HPLC Method for Solubility and Stability Tests

[5] = Pharmacokinetics in dogs after a single dose by gavage; conditions: for in vivo exposure levels: dog pharmacokinetic data, compared with free base crystal form I; for AUC0-last / AUCINF / Cmax / T1/2 / Tmax: dogs, single gavage dose 5mpk, 1mg/ml in 0.5%MC+1% tween 80 (Uniform suspension), 5 mg/kg
Procedure: (§6) Blood samples were collected at different time points to determine the drug concentration in the dog plasma after administration of the test substance and relevant pharmacokinetic parameters were calculated.
as §2, §3
(§7) (Time points ≤ 2 hours: ± 2 min; other points: ± 15 min.)
as §4, §5

in vivo [6] = conditions: dog, po, 5 mg/kg
Procedure: as §6, §2, §3, §7, §4, §5

physchem [7] = assay: physchem
[8] = Rough solubility in 17 solvents by visual inspection at room temperature; conditions: for solubility: DMSO
physchem [9] = assay: physchem; remark: listed apart in the source
[10] = Solubility test in biological media and water at 37 °C (HPLC; XRPD of residue); conditions: for Solubility (µg/mL) 2 h / Solubility (µg/mL) 0.5 h / Solubility (µg/mL) 24 h: calculated using free base; for Solubility (µg/mL) 2 h: 120 min; for Solubility (µg/mL) 24 h: 1440 min
[11] = Evaluation of amorphous free base: suspension stirred in solvent at room temperature for 2 days; assay type: physicochemical; conditions: for Result (solid form obtained): suspension stirred at room temperature for 2 days
Procedure: 100 mg of the amorphous free base sample obtained in the present invention was weighed and a solvent was added to form a suspension. The mixture was stirred at room temperature for 2 days, and the results are as follows: […]

[12] = FaSSIF (pH=6.49), LOQ: ~1.0 µg/mL
[13] = crystal form after 24 h in FaSSIF (pH=6.49)
[14] = crystal form after 24 h in FeSSIF (pH=5.00)
[15] = crystal form after 24 h in SGF (pH=1.19)
[16] = crystal form after 24 h in Water (pH=5.45)

| Structure (SMILES) | Purity (Area%) 40 °C/ 75%RH [4] [Area%] | Purity (Area%) 60 °C/ Closed [4] [Area%] | Initial purity (Area%) [4] [Area%] | XRPD 40 °C/ 75%RH [4] | XRPD 60 °C/ Closed [4] | AUC0-last [5] [ng·h/mL] | AUCINF [5] [ng·h/mL] | Cmax [5] [ng/mL] | T1/2 [5] [h] | AUC0-last [3] [ng·h/mL] | AUCINF [3] [ng·h/mL] | Cmax [3] [ng/mL] | T1/2 [3] [h] | Tmax [3] [h] | Tmax [5] [h] | Solubility (µg/mL) 2 h [10, 12] [µg/mL] | XRPD (24 h) [10, 13] | XRPD (24 h) [10, 14] | in vivo exposure levels [3] | in vivo exposure levels [5] | also measured |
| --- | --- | --- | --- | --- | --- | --- | --- | --- | --- | --- | --- | --- | --- | --- | --- | --- | --- | --- | --- | --- | --- |
| CO[C@]1(C(=O)N[C@@H](C)c2ccc(-n3cc(F)cn3)nc2)CC[C@H](c2nc(C)cc(Nc3cc(C)[nH]n3)n2)CC1 [BLU-667] | – | – | – | – | – | – | – | – | – | – | – | – | – | – | – | – | – | – | – | – | ORR ([1]; patients with medullary thyroid carcinoma): 40%; ORR ([1]; patients with non-small cell lung cancer): 50%; overall remission rate (ORR) ([1]; tumor patients with RET fusion and mutation): 45% |
| CCn1ncc2c(Nc3cc(C)[nH]n3)nc([C@H]3CC[C@](OC)(C(=O)N[C@@H](C)c4cnc(-n5cc(F)cn5)cn4)CC3)nc21 [Free base crystal form III] | 99.253 | 99.212 | 99.316 | Unchanged | Unchanged | 763.5 | 776.0 | 151.5 | 4.275 | – | – | – | – | – | – | – | – | – | higher than those of free base crystal form I | higher than those of free base crystal form I | AUC(0-inf) (in vivo [2]): 1260 ng·h/mL; AUC(0-t) (in vivo [2]): 1250 ng·h/mL; Cmax (in vivo [2]): 153 ng/mL; Tmax (in vivo [2]): 6 h; half-life (in vivo [2]): 3.18 h; Tmax (in vivo [6]): 2 h |
| CCn1ncc2c(Nc3cc(C)[nH]n3)nc([C@H]3CC[C@](OC)(C(=O)N[C@@H](C)c4cnc(-n5cc(F)cn5)cn4)CC3)nc21 [Free base crystal form I] | – | – | – | – | – | 673.5 | 684.0 | 111.7 | 2.835 | 1172.00 | 1197.00 | 158.00 | 2.69 | 4.67 | 3.0 | – | – | – | – | – | solubility (physchem [7]; 2-me-thf): 11100 to 12500 µg/mL (≈ 18.9 to 21.2 mM); solubility (physchem [7]; acetone): 7100 to 8300 µg/mL (≈ 12.1 to 14.1 mM); solubility (physchem [7]; dcm): 4600 to 5000 µg/mL (≈ 7.81 to 8.49 mM); solubility (physchem [7]; ea): 2200 to 2300 µg/mL (≈ 3.74 to 3.91 mM); solubility (physchem [7]; etoh): < 600 µg/mL; solubility (physchem [7]; hept): < 600 µg/mL; solubility (physchem [7]; ipa): < 600 µg/mL; solubility (physchem [7]; ipac): 1500 to 1600 µg/mL (≈ 2.55 to 2.72 mM); solubility (physchem [7]; mek): 6300 to 7100 µg/mL (≈ 10.7 to 12.1 mM); solubility (physchem [7]; meoh): ~1200 µg/mL (≈ 2.04 mM); solubility (physchem [7]; mtbe): < 600 µg/mL; solubility (physchem [7]; n-buoh): < 600 µg/mL; solubility (physchem [7]; thf): > 40000 µg/mL; solubility (physchem [7]; tol): < 600 µg/mL; solubility (physchem [7]; water): < 600 µg/mL; solubility [8]: > 40000 µg/mL; solubility ([8]; listed as free base crystal form I): >166700 µg/mL; Solubility (mg/mL) ([8]; THF): 41.7~50.0 mg/mL |
| CCn1ncc2c(Nc3cc(C)[nH]n3)nc([C@H]3CC[C@](OC)(C(=O)N[C@@H](C)c4cnc(-n5cc(F)cn5)cn4)CC3)nc21 [amorphous free base] | – | – | – | – | – | – | – | – | – | – | – | – | – | – | – | – | – | – | – | – | Result (solid form obtained) ([11]; Acetone): Free base crystal form III; Result (solid form obtained) ([11]; Methanol): Free base crystal form I; stability of the solid form in the solvent ([11]; suspension in methanol or acetone, room temperature, 2 days): unstable and easily transformed into other crystal forms |

Now from value to compound, other results behind:

| Purity (Area%) 40 °C/ 75%RH [4] [Area%] | Purity (Area%) 60 °C/ Closed [4] [Area%] | Initial purity (Area%) [4] [Area%] | XRPD 40 °C/ 75%RH [4] | XRPD 60 °C/ Closed [4] | AUC0-last [5] [ng·h/mL] | AUCINF [5] [ng·h/mL] | Cmax [5] [ng/mL] | T1/2 [5] [h] | AUC0-last [3] [ng·h/mL] | AUCINF [3] [ng·h/mL] | Cmax [3] [ng/mL] | T1/2 [3] [h] | Tmax [3] [h] | Tmax [5] [h] | Solubility (µg/mL) 2 h [10, 12] [µg/mL] | XRPD (24 h) [10, 13] | XRPD (24 h) [10, 14] | Structure (SMILES) | in vivo exposure levels [3] | in vivo exposure levels [5] | also measured |
| --- | --- | --- | --- | --- | --- | --- | --- | --- | --- | --- | --- | --- | --- | --- | --- | --- | --- | --- | --- | --- | --- |
| 97.914 | 98.119 | 98.062 | Unchanged | Unchanged | 3807.0 | 4179.0 | 617 | 6.87 | 1781.00 | 1790.00 | 247.00 | 2.77 | 5.00 | 4.0 | 5.950 | Almost amorphous | Unchanged | CCn1ncc2c(Nc3cc(C)[nH]n3)nc([C@H]3CC[C@](OC)(C(=O)N[C@@H](C)c4cnc(-n5cc(F)cn5)cn4)CC3)nc21 [Fumarate crystal form I] | higher than those of free base crystal form I | higher than those of free base crystal form I | solubility at 24 h (physchem [9]; fassif, pH 6.49): 22.7 µg/mL; solubility at 0.5 h (physchem [9]; fessif, pH 5): 84.2 µg/mL; solubility at 2 h (physchem [9]; fessif, pH 5): 28.5 µg/mL; solubility at 24 h (physchem [9]; fessif, pH 5): 20.9 µg/mL; solubility at 0.5 h (physchem [9]; sgf): 210 µg/mL; solubility at 0.5 h (physchem [9]; sgf, pH 1.19): 210 µg/mL; solubility at 2 h (physchem [9]; sgf, pH 1.19): 204 µg/mL; solubility at 24 h (physchem [9]; sgf, pH 1.19): 78.1 µg/mL; XRPD (24 h) [10, 15]: Unchanged; XRPD (24 h) [10, 16]: Unchanged |
| 98.742 | 98.753 | 98.772 | Unchanged | Unchanged | – | – | – | – | 1209.00 | 1217.00 | 177.00 | 2.31 | 3.00 | – | 2.650 | Changed | Almost amorphous | CCn1ncc2c(Nc3cc(C)[nH]n3)nc([C@H]3CC[C@](OC)(C(=O)N[C@@H](C)c4cnc(-n5cc(F)cn5)cn4)CC3)nc21 [Malate crystal form I] | higher than those of free base crystal form I | higher than those of free base crystal form I | Solubility (µg/mL) 0.5 h ([10]; FeSSIF (pH=5.00), 30 min): 58.771 µg/mL; Solubility (µg/mL) 2 h ([10]; FeSSIF (pH=5.00)): 19.818 µg/mL; Solubility (µg/mL) 24 h ([10]; FeSSIF (pH=5.00)): 16.658 µg/mL; Solubility (µg/mL) 0.5 h ([10]; SGF (pH=1.19), 30 min): 204.753 µg/mL; Solubility (µg/mL) 2 h ([10]; SGF (pH=1.19)): 113.155 µg/mL; Solubility (µg/mL) 24 h ([10]; SGF (pH=1.19)): 79.977 µg/mL; maximum solubility ([10]; SGF medium at 0.5 hours, 30 min): 200 µg/mL; XRPD (24 h) [10, 15]: Changed; XRPD (24 h) [10, 16]: Unchanged |
